A short description of this series: gradient 5% acetonitrile 3 min, to 50% in 2 min, to 85% in 15 min, held 3 min, 100 µL/min. As to conditions: column: Zorbax Extend-C18 2.1 x 50 mm; eluents: water / acetonitrile, 0.1% formic acid. The method in brief: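 The system's dead and dwell volumes were 40 μL and 900 μL, with a Zorbax Extend-C18 column (2.1 × 50 mm, 1.8 μm) run at 100 μL/min in water and acetonitrile containing 0.1% formic acid each. Pure standards were analyzed in mixtures of ~100 molecules by HPLC–quadrupole time-of-flight mass spectrometry in positive and negative ionization mode. Retention time was assigned from computationally picked, manually inspected adduct peaks.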
`O=C(CCc1c(-c2ccc(Cl)cc2)nc2ccccn12)Nc1cccc(C(F)(F)F)c1` showed an RP-LC retention time of 782 s. Molecule `C=CCn1ccn(-c2ccc(F)c(Cl)c2)c(=O)c1=O` returned an RP-LC retention time of 652 s. `CCc1ccccc1NS(=O)(=O)c1cc(-c2[nH]ncc2C(=O)N2CCCC2)oc1C` returned an RP-LC retention time of 749 s.

Take `Cn1cc(-c2ccc3ncc(Cc4ccc5ncccc5c4)n3n2)cn1`: the RP-LC retention time is 582 s.

The molecule `CCn1ncc(NC(=O)COc2ccccc2C)c(N2CCOCC2)c1=O` had an RP-LC retention time of 889 s. As for `Cc1ccc2[nH]c(=O)c(CCC(=O)NCCc3ccccn3)cc2c1`, the RP-LC retention time came out at 577 s. `Cc1ccccc1S(=O)(=O)N1CCC(OCCOCc2ccccc2)CC1`: the RP-LC retention time was found to be 1130 s. Next, `CC(C)S(=O)(=O)c1cc2c(cc1NC(=O)c1ccccc1F)n(C)c(=O)n2C`: 799 s; `O=C(Cn1ncc2c(c1=O)N(C1CC1)C(=O)CS2)NCc1ccco1`: 648 s. In turn, `CCCn1c(=O)c(C)nc2cc(-c3noc(-c4cc(OC)cc(OC)c4)n3)ccc21` came in with an RP-LC retention time of 1090 s. For `CCCC(=O)NCCn1c(=O)n(Cc2ccccc2)c2cccnc21` the value was 718 s; for `COc1ccccc1N1CCN(CCCNS(=O)(=O)c2ccc3c(c2)CCCC(=O)N3)CC1`, 616 s; for `CCOC(=O)N1CCN(C(=O)CSCC(=O)Nc2nc(-c3ccc(OC)cc3)cs2)CC1`, 841 s. With `O=C(Cn1nc(S(=O)(=O)c2ccccc2)ccc1=O)Nc1ccc2c(c1)OCO2`, the RP-LC retention time came to 796 s. `Cc1noc(-c2ccnc(-n3ncc(C(=O)N4CCCCC4)c3C)c2)n1`: the RP-LC retention time amounted to 841 s. The molecule `CC1CCN(C(=O)C2CCN(c3ccc4nnc(-c5ccccc5)n4n3)CC2)CC1` registered an RP-LC retention time of 902 s. Turning to `Cc1ccc(C(=O)NC2CCN(c3cc(-c4ccc(Cl)cc4)[nH]n3)C2)cc1C` (stereo not given), the RP-LC retention time amounted to 860 s. In the case of `O=C(Cc1ccccc1Cl)N1CCc2cc(-c3ccno3)ccc21`, the RP-LC retention time was found to be 1020 s. For `O=C(Nc1nnc2n1CCS2)c1c(F)cccc1F` the value was 584 s; for `CCCn1cc(C(=O)N2CCC(N3CCCCC3)CC2)c2cccnc21`, 567 s; for `Cc1cc(C)cc(Nc2nc(C)cc(=O)n2CC(=O)NC(C)CCc2ccccc2)c1` (stereo not given), 1030 s. For the molecule `CC(C)(NC(=O)C1CCCO1)c1nc2c(c(C(N)=O)n1)OCO2` (stereo not given), the RP-LC retention time was determined as 563 s. Take `CCOC(=O)c1cc(S(=O)(=O)N2CCCC2C(=O)NCc2cccs2)cn1C` (stereo not given): the RP-LC retention time came to 823 s. As to `Cc1cc2c(N3CCCC(C(=O)N4CCN(c5ccc(Cl)cc5)CC4)C3)nccc2s1` (stereo not given), the RP-LC retention time amounted to 799 s. In the case of `COc1cccc(-c2noc(Cn3ccn(-c4cc(C)cc(C)c4)c(=O)c3=O)n2)c1OC`, the RP-LC retention time was 870 s. Turning to `COc1ccc(C(=O)Nc2cccc(-c3ccc(S(C)(=O)=O)nn3)c2)cc1OC`, the RP-LC retention time amounted to 681 s. As to `Cc1ccc(Cn2cc(-c3ccncc3)cc2C(=O)N(C)Cc2ccccc2)cc1`, the RP-LC retention time was determined as 751 s. With `Cc1ccc(-c2nnc(-c3ccc(-n4ccnc4)nc3)o2)cc1F`, the RP-LC retention time is 716 s. For the molecule `CS(=O)(=O)NCc1ccc2c(c1)CCN2C(=O)c1ccccc1`, the RP-LC retention time turned out to be 733 s. For `CC1Cc2ccc(CNC(=O)NC(C)(C)C)cc2N1C(=O)c1ccccc1` (stereo not given), the RP-LC retention time is 853 s.

For `O=C(Nc1cc(-c2cccs2)nn1CCO)C1(c2ccccc2)CCOCC1`, the RP-LC retention time is 734 s. For the molecule `COc1ccc(OC)c(NC(=O)C2=Cc3cc(Br)ccc3OC2)c1`, the RP-LC retention time was 1150 s. The molecule `COc1ccc(-c2noc(Cn3cnc4c(cnn4-c4ccc(OC)cc4)c3=O)n2)cc1` returned an RP-LC retention time of 982 s.

As for `O=C(Nc1cccn2ncnc12)c1ccc(Cl)s1`, the RP-LC retention time was found to be 820 s.

`Fc1cc(-c2cccc3ncc(-c4cnn(C5CCNCC5)c4)nc23)cc(F)c1CN1CCOCC1` registered an RP-LC retention time of 611 s. On to `Cc1nnc(C2CCCN(C(=O)c3cc(-c4ccc5c(c4)OCO5)n[nH]3)C2)s1` (stereo not given), for which the RP-LC retention time is 654 s.

`COc1ccccc1C1(CNC(=O)Nc2cccc(Cl)c2)CCOCC1` showed an RP-LC retention time of 867 s. `CCCN1N=C(C(=O)N2CCOCC2)S(=O)(=O)c2cc(Cl)ccc21` registered an RP-LC retention time of 813 s. Next, `CCOc1ccc(NC(=O)N2CCC(n3cnc4cc(F)ccc4c3=O)CC2)cc1`: 797 s. Regarding `Cc1cccc(NC(=O)Cn2nc(N3CCC(C)CC3)c3ccccc3c2=O)c1`, the RP-LC retention time was 1160 s. `CCN1C(=O)c2ccccc2Oc2ccc(C(=O)NC3CCCCC3)cc21`: the RP-LC retention time turned out to be 967 s. As to `CCOC(=O)C12CC1/C(=N\O)c1ccccc1O2` (stereo not given), the RP-LC retention time turned out to be 773 s.

The molecule `Cc1ccc(S(=O)(=O)N2CCCC(Cn3c(C4CC4)nc4cccnc43)C2)c(C)c1` (stereo not given) showed an RP-LC retention time of 832 s. For `CCNc1cc(N2CCC(CCC(=O)N3CCCN(c4ncccn4)CC3)CC2)ncn1`, the RP-LC retention time turned out to be 596 s.

Molecule `COc1ccccc1CC(=O)N1CCCC1c1c(C)noc1C` (stereo not given) gave an RP-LC retention time of 753 s. `CCC1CN(C(=O)N2CCC(C(=O)NCCN3CCN(CC)CC3)CC2)c2cc(C)ccc2O1` (stereo not given): the RP-LC retention time was 616 s.

In turn, `Cn1ccc2c(cc(C(=O)NCCCc3ccccc3)n2C)c1=O` registered an RP-LC retention time of 736 s. For `Cc1ccccc1NS(=O)(=O)c1cc2n(c1)CCN(C(C)C)C2=O` the value was 758 s.

For the molecule `CCCn1cc(C(=O)NCC(=O)OC)c(S(=O)(=O)N2CCN(c3ccccc3OCC)CC2)n1`, the RP-LC retention time came out at 969 s. For the molecule `Cc1ccc(-n2c(N)cc(=O)nc2SCC(=O)Nc2nc3ccc(C)cc3s2)cc1`, the RP-LC retention time is 686 s. The molecule `Cc1cccc(OCC(=O)N2CCN(c3cc(C)n4c(C)nnc4n3)CC2)c1` returned an RP-LC retention time of 614 s. Molecule `CCc1nnc(-c2nnc(NCCOc3ccccc3OC)c3ccccc23)o1` had an RP-LC retention time of 790 s. `COc1ccc(C2CC(=O)N(c3ccccc3)C(=O)C2)cc1OC` returned an RP-LC retention time of 860 s. As to `O=C(Nc1ccc2nncn2c1)Nc1cc(F)ccc1F`, the RP-LC retention time worked out at 726 s. Molecule `O=C(Nc1cnn(-c2ncc(N3CCSCC3)cn2)c1)NC1CCCC1` displayed an RP-LC retention time of 848 s. For `Cn1cc(CCN2CCC(C(=O)N3CCCCCC3)CC2)c2cccnc21` the value was 595 s. In turn, `NS(=O)(=O)c1ccc(CCNC(=O)C(=O)Nc2ccc(Cl)cn2)cc1` gave an RP-LC retention time of 695 s. For `CCOc1ccc(NC(=O)N2CCC3(CC2)NC(=O)c2ccccc2N3C)cc1` the value was 781 s. In turn, `O=P(Oc1ccccc1)(Oc1ccccc1)c1ccccc1` registered an RP-LC retention time of 1070 s. Next, `O=c1n(Cc2nc(-c3ccc(F)c(Br)c3)no2)nc2ccc(-c3ccccc3)nn12`: 1010 s. As to `CCNC(=O)N1CCCC1c1nc(C2CCOCC2)no1` (stereo not given), the RP-LC retention time was found to be 612 s. Turning to `Cc1cc2c(c(=O)n(-c3ccccc3)c(=O)n2CC(=O)N(C)c2ccccc2)n1C`, the RP-LC retention time amounted to 806 s. In turn, `COc1cccc(NC(=O)c2sc(-c3cn(C(C)C)c4ncccc34)nc2C)c1` gave an RP-LC retention time of 1060 s. In the case of `COc1ccc(NC(=O)c2c[nH]c3ncccc23)cc1`, the RP-LC retention time amounted to 673 s. The molecule `CNC(=O)N1CCCC(c2cccc(C(=O)NCc3ccc(F)cc3F)c2)C1` (stereo not given) gave an RP-LC retention time of 775 s.

`O=C(Nc1nc(CC(=O)N2CCN(c3ncccn3)CC2)cs1)C1CCCC1` gave an RP-LC retention time of 669 s.

In turn, `COc1ccc(-c2noc(Cc3nnc(-c4ccc(F)cc4)o3)n2)cc1` gave an RP-LC retention time of 972 s.

In turn, `Cn1nc(C(=O)N2CCCC(C(=O)Nc3ccccc3)C2)c2c1CCN(C(=O)C1CCCCC1)C2` (stereo not given) showed an RP-LC retention time of 796 s. For `COc1ccc(-c2csc3c(=O)n(Cc4ccccn4)cnc23)cc1` the value was 815 s. In turn, `COc1ccc(NC(=O)N2CCC(CC(=O)N3CCCCC3)CC2)cc1Cl` had an RP-LC retention time of 774 s.

In the case of `Cc1nnc2sc(SCc3ccc([N+](=O)[O-])cc3)nn2c1=O`, the RP-LC retention time stood at 697 s.

On to `COc1ccc(-n2c(=O)c(C(=O)Nc3ccc(F)c(F)c3)c(O)c3cccnc32)cc1`, for which the RP-LC retention time amounted to 983 s. Next, `COCCCNC(=O)C1CCCN(S(=O)(=O)c2ccc(OC)c(OC)c2)C1` (stereo not given): 699 s; `COC(=O)c1c(NC(=O)N2CCCN(c3nc4cccnc4s3)CC2)sc2c1CCCC2`: 1100 s; `CCCCNC(=O)Cn1cccc(-c2nc(-c3ccc(F)cc3)no2)c1=O`: 790 s. `O=C(Nc1ccc2c(c1)OCO2)C1CCN(C(=O)C2Sc3ccccc3NC2=O)CC1` (stereo not given) came in with an RP-LC retention time of 736 s. As for `CS(=O)(=O)N1CCC(C(=O)Nc2cccc(Br)c2)Oc2ccccc21` (stereo not given), the RP-LC retention time turned out to be 996 s. `COc1ccc(C(=O)N2CCc3cn(C)c4cccc(c34)C2)c(OC)c1` showed an RP-LC retention time of 875 s. The molecule `CCc1cc(C2CCCN2C(=O)NCCc2ccccc2)on1` (stereo not given) returned an RP-LC retention time of 789 s. For `Cn1ncc2c3ccccc3n(CC(=O)NCCCN3CCCC3)c2c1=O`, the RP-LC retention time was 592 s.

The values are drawn from the METLIN SMRT retention time set (Domingo-Almenara et al. 2019).
